Columns and labels:
[1] = target: T1, 5-hydroxytryptamine receptor 1D (Homo sapiens, UniProt P28221); assay: GPCRScan assay: inhibition of 5-HT1D; set-up: radioligand conc. used [nm] 1.0 – 2.0, parental cells HEKT
[2] = target: 5-hydroxytryptamine receptor 6 (Homo sapiens, UniProt P50406); assay: GPCRScan assay: inhibition of 5-HT6; set-up: radioligand conc. used [nm] 2.0 – 4.0, parental cells stable HEK
[3] = target: T2, Sodium-dependent noradrenaline transporter (Homo sapiens, UniProt P23975); assay: GPCRScan assay: inhibition of NET; set-up: radioligand conc. used [nm] 1.3 – 5.0, parental cells stable HEK
[4] = target: T3, Sodium-dependent dopamine transporter (Homo sapiens, UniProt Q01959); assay: GPCRScan assay: inhibition of DAT; set-up: radioligand conc. used [nm] 3.6 – 16.0, parental cells stable HEK
[5] = target: T4, Sigma intracellular receptor 2 (Homo sapiens, UniProt Q5BJF2); assay: GPCRScan assay: inhibition of Sigma 2; set-up: radioligand conc. used [nm] 5.0, parental cells HEKT
[6] = target: T5, Sigma non-opioid intracellular receptor 1 (Homo sapiens, UniProt Q99720); assay: GPCRScan assay: inhibition of Sigma 1; set-up: radioligand conc. used [nm] 4.0 – 5.0, parental cells HEKT
[7] = target: T6, Mitotic checkpoint serine/threonine-protein kinase BUB1 (Homo sapiens, UniProt O43683); assay: BUB1 biochemical assay (low ATP)
[8] = target: T6, Mitotic checkpoint serine/threonine-protein kinase BUB1; assay: BUB1 biochemical assay (high ATP)
[9] = target: 5-hydroxytryptamine receptor 1A (Homo sapiens) (UniProt P08908); conditions: Compound concentration 10.0 uM
[10] = target: 5-hydroxytryptamine receptor 1B (Homo sapiens) (UniProt P28222); conditions: Compound concentration 10.0 uM
[11] = target: T1, 5-hydroxytryptamine receptor 1D; conditions: Compound concentration 10.0 uM
[12] = target: 5-hydroxytryptamine receptor 1E (Homo sapiens) (UniProt P28566); conditions: Compound concentration 10.0 uM
[13] = target: 5-hydroxytryptamine receptor 2A (Homo sapiens) (UniProt P28223); conditions: Compound concentration 10.0 uM
[14] = target: 5-hydroxytryptamine receptor 2B (Homo sapiens) (UniProt P41595); conditions: Compound concentration 10.0 uM
[15] = target: 5-hydroxytryptamine receptor 3A (Homo sapiens) (UniProt P46098); conditions: Compound concentration 10.0 uM
[16] = target: 5-hydroxytryptamine receptor 5A (Homo sapiens) (UniProt P47898); conditions: Compound concentration 10.0 uM
[17] = target: 5-hydroxytryptamine receptor 7 (Homo sapiens, UniProt P34969); conditions: Compound concentration 10.0 uM
[18] = target: D(1A) dopamine receptor (Homo sapiens) (UniProt P21728); conditions: Compound concentration 10.0 uM
[19] = target: D(2) dopamine receptor (Homo sapiens) (UniProt P14416); conditions: Compound concentration 10.0 uM
[20] = target: D(3) dopamine receptor (Homo sapiens) (UniProt P35462); conditions: Compound concentration 10.0 uM
[21] = target: D(4) dopamine receptor (Homo sapiens) (UniProt P21917); conditions: Compound concentration 10.0 uM
[22] = target: D(1B) dopamine receptor (Homo sapiens) (UniProt P21918); conditions: Compound concentration 10.0 uM
[23] = target: Sodium-dependent serotonin transporter (Homo sapiens) (UniProt P31645); conditions: Compound concentration 10.0 uM
[24] = target: T2, Sodium-dependent noradrenaline transporter; conditions: Compound concentration 10.0 uM
[25] = target: T3, Sodium-dependent dopamine transporter; conditions: Compound concentration 10.0 uM
[26] = target: Mu-type opioid receptor (Homo sapiens) (UniProt P35372); conditions: Compound concentration 10.0 uM
[27] = target: Delta-type opioid receptor (Homo sapiens) (UniProt P41143); conditions: Compound concentration 10.0 uM
[28] = target: Kappa-type opioid receptor (Homo sapiens) (UniProt P41145); conditions: Compound concentration 10.0 uM
[29] = target: Histamine H1 receptor (Homo sapiens) (UniProt P35367); conditions: Compound concentration 10.0 uM
[30] = target: Histamine H2 receptor (Homo sapiens) (UniProt P25021); conditions: Compound concentration 10.0 uM
[31] = target: Histamine H4 receptor (Homo sapiens) (UniProt Q9H3N8); conditions: Compound concentration 10.0 uM
[32] = target: Alpha-1A adrenergic receptor (Homo sapiens) (UniProt P35348); conditions: Compound concentration 10.0 uM
[33] = target: Alpha-1B adrenergic receptor (Homo sapiens) (UniProt P35368); conditions: Compound concentration 10.0 uM
[34] = target: T7, Alpha-2A adrenergic receptor (Homo sapiens) (UniProt P08913); conditions: Compound concentration 10.0 uM
T7 sequence (whole entry): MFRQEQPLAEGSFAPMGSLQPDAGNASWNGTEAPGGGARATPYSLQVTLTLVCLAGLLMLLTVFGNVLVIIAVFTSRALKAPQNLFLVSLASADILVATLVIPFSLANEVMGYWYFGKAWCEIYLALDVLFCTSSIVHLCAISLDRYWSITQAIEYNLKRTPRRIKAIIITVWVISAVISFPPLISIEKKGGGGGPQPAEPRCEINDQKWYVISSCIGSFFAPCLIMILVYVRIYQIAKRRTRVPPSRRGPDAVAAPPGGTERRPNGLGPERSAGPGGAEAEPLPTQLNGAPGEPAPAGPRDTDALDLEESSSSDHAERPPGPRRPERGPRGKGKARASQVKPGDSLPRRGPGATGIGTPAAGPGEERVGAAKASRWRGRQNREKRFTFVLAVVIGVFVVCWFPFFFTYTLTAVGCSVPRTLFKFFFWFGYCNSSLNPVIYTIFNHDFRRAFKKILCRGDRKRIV

[35] = target: Alpha-2B adrenergic receptor (Homo sapiens) (UniProt P18089); conditions: Compound concentration 10.0 uM
[36] = target: Alpha-2C adrenergic receptor (Homo sapiens) (UniProt P18825); conditions: Compound concentration 10.0 uM
[37] = target: Beta-1 adrenergic receptor (Homo sapiens) (UniProt P08588); conditions: Compound concentration 10.0 uM
[38] = target: Muscarinic acetylcholine receptor M4 (Homo sapiens) (UniProt P08173); conditions: Compound concentration 10.0 uM
[39] = target: Beta-3 adrenergic receptor (Homo sapiens) (UniProt P13945); conditions: Compound concentration 10.0 uM
[40] = species: Rattus norvegicus; conditions: Compound concentration 10.0 uM
[41] = target: Alpha-1D adrenergic receptor (Homo sapiens) (UniProt P25100); conditions: Compound concentration 10.0 uM
[42] = target: T4, Sigma intracellular receptor 2; conditions: Compound concentration 10.0 uM
[43] = target: T5, Sigma non-opioid intracellular receptor 1; conditions: Compound concentration 10.0 uM

T3 sequence (Q01959 whole entry): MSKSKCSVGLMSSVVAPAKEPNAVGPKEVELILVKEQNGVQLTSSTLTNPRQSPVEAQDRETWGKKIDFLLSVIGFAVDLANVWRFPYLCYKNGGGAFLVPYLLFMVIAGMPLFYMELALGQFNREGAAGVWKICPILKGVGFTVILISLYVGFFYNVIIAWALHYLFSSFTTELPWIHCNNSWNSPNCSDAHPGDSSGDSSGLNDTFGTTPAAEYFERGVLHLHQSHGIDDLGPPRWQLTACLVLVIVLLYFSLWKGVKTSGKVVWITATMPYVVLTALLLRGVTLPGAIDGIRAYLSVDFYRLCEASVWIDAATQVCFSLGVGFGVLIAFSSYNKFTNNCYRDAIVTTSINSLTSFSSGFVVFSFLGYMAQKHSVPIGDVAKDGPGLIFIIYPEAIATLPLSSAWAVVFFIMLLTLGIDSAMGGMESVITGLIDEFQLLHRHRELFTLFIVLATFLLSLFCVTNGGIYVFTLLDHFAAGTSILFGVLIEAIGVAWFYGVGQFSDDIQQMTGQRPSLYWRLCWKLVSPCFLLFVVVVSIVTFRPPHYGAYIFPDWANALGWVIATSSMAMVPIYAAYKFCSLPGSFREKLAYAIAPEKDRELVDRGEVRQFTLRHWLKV
T6 sequence (O43683 whole entry): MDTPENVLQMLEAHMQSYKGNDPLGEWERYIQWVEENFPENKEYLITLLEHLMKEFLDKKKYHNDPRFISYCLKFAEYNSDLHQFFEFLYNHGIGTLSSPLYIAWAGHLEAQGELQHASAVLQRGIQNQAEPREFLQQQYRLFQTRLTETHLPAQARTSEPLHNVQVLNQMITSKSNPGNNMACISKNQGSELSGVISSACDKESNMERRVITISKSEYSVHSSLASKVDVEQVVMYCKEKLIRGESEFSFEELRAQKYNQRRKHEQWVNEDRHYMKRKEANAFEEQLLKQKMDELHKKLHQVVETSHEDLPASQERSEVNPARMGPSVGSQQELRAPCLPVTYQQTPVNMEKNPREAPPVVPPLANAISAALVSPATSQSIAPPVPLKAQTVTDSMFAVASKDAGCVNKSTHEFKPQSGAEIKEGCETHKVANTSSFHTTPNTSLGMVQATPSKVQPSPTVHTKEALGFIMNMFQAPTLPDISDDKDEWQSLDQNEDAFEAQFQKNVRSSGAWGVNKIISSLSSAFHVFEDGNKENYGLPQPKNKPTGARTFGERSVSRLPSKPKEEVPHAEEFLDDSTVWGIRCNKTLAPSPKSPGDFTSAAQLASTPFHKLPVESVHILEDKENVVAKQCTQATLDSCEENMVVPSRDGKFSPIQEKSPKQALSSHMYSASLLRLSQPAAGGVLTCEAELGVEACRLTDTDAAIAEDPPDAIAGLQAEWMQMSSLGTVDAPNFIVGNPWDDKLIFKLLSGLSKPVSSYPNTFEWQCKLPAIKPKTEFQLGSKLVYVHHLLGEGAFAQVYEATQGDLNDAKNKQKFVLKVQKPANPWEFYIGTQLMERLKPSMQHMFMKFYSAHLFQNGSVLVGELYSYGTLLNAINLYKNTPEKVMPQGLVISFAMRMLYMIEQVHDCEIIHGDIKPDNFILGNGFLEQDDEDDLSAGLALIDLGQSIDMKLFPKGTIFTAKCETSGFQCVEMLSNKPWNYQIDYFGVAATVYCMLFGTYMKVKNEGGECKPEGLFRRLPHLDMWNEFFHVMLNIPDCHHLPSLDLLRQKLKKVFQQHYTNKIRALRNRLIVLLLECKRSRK
Chain of 5-hydroxytryptamine receptor 6 (P50406 whole entry): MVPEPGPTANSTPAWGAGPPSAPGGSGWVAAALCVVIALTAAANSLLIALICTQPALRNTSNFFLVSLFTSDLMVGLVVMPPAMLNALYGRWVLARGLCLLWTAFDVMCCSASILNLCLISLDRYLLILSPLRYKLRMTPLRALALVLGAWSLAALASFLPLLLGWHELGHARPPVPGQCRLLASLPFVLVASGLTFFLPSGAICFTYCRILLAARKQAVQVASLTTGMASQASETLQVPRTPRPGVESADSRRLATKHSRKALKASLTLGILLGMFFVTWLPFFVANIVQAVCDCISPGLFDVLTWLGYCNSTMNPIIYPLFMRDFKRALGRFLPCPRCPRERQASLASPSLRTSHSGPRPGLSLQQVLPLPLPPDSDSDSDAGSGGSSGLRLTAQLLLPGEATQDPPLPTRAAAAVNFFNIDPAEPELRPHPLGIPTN
T4 sequence (Q5BJF2 whole entry): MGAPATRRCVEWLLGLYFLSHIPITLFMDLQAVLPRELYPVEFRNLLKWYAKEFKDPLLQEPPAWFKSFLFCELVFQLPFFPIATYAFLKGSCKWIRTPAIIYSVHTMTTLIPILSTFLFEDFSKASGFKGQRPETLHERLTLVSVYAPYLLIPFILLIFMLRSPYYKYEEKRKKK
T5 sequence (Q99720 whole entry): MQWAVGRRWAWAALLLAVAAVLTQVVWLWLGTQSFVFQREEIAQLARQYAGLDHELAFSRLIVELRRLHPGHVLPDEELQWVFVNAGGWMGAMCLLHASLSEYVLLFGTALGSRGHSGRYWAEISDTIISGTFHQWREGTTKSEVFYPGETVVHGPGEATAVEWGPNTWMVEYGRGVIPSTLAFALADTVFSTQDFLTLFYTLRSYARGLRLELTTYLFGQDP
T2 sequence (P23975 whole entry): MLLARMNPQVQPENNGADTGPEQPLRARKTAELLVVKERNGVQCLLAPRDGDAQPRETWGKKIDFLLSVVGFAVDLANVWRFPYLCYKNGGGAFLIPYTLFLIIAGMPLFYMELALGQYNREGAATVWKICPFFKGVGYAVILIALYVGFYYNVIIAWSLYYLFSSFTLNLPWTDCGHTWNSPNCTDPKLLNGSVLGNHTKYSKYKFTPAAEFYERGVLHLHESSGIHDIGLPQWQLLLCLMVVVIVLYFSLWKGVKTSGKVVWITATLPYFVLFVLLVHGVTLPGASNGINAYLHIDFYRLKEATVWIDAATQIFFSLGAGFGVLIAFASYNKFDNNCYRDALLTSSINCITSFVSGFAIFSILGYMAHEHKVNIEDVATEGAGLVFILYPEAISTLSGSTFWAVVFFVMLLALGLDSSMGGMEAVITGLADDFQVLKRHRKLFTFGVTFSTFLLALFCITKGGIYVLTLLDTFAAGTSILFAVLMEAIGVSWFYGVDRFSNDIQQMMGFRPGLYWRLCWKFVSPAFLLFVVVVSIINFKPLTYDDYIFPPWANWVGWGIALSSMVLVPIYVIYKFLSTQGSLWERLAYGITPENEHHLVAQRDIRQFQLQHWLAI
T1 sequence (P28221 whole entry): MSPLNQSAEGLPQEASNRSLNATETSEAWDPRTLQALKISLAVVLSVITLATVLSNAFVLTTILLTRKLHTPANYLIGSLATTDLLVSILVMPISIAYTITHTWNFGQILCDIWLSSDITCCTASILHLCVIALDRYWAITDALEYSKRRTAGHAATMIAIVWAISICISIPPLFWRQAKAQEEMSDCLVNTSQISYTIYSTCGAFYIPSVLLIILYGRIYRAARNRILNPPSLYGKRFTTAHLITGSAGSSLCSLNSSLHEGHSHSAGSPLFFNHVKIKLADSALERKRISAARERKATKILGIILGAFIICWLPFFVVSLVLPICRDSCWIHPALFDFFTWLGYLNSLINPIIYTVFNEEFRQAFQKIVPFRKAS
Chain of 5-hydroxytryptamine receptor 3A (Homo sapiens) (P46098 whole entry): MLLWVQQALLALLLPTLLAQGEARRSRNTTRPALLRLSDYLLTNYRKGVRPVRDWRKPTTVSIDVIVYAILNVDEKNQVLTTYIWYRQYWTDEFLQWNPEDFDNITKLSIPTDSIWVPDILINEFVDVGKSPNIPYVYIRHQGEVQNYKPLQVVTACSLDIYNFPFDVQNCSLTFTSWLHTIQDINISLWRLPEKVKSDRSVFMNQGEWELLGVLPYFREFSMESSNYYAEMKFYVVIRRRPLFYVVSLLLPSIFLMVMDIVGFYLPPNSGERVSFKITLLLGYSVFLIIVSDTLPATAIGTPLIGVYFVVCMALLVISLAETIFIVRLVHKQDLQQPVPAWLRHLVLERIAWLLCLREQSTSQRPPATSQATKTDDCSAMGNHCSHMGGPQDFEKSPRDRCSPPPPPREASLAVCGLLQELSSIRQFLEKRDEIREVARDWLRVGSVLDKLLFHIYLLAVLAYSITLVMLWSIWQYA
Chain of D(1B) dopamine receptor (Homo sapiens) (P21918 whole entry): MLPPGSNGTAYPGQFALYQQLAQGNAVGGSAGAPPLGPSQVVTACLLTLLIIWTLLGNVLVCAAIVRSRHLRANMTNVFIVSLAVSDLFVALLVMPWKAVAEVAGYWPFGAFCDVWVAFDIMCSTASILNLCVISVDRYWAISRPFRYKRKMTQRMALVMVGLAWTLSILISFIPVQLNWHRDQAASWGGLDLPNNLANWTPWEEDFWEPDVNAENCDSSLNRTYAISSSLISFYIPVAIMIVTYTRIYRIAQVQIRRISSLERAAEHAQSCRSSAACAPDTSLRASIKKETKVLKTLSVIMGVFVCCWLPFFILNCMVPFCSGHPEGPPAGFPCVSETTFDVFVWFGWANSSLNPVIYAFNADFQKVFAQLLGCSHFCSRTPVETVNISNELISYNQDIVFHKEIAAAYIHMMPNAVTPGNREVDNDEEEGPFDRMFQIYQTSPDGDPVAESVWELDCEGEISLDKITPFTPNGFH
Chain of 5-hydroxytryptamine receptor 2B (Homo sapiens) (P41595 whole entry): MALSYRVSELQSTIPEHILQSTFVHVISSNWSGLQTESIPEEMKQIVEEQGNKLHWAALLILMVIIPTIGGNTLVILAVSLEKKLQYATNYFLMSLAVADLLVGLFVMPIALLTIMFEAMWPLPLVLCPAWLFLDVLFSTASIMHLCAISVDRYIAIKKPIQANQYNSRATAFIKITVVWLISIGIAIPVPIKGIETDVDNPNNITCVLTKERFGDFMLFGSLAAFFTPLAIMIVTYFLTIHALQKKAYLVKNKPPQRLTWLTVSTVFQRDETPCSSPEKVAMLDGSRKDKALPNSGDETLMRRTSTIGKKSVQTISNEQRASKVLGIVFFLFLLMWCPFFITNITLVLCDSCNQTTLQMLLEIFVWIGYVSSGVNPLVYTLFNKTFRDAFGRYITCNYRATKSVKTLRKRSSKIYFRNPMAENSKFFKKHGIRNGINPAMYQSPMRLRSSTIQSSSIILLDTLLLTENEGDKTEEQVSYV

COc1ccccc1Nc1nc(-c2nn(Cc3c(F)cc(OCCCO)cc3F)c3ccccc23)ncc1OC
Ki [1]: 8.97 µM | Ki [2]: > 10 µM | pKi [2]: < 5 | Ki [3]: 2.74 µM | Ki ([4]; read-out: Ki): 1.63 µM | Ki ([4]; read-out: pKi (converted)): 1.62 µM | Ki [5]: 0.655 µM | Ki [6]: 1.34 µM | IC50 [7]: 1.7 µM (not active) | IC50 [8]: > 20 µM (not active) | inhibition [9]: 12.3% | inhibition [10]: 33.8% | inhibition [11]: 55.1% | inhibition [12]: -3.71% | inhibition [13]: 6.5% | inhibition [14]: -3.83% | inhibition [15]: -3.97% | inhibition [16]: 3.77% | inhibition [17]: -3.39% | inhibition [18]: 41.3% | inhibition [19]: 21.8% | inhibition [20]: 20% | inhibition [21]: 24.9% | inhibition [22]: 26.8% | inhibition [23]: 10.9% | inhibition [24]: 58.7% | inhibition [25]: 82.8% | inhibition [26]: -9.7% | inhibition [27]: -9.55% | inhibition [28]: 17.5% | inhibition [29]: 20.3% | inhibition [30]: 28.7% | inhibition [31]: 27.8% | inhibition [32]: -6.1% | inhibition [33]: -4.46% | inhibition [34]: 28.9% | inhibition [35]: 27.6% | inhibition [36]: 12.9% | inhibition [37]: 1.17% | inhibition [38]: 9.26% | inhibition [39]: 33.6% | inhibition [40]: 13.9% | inhibition [41]: 12.9% | inhibition [42]: 69.2% | inhibition [43]: 52.2%

Source: ChEMBL document CHEMBL5058649, “Data for DCP probe BAY 1816032” (2022)
